Data taken from US6204005A, “Immunoassay for toxic congeners of polychlorinated biphenyls” (priority 1995, dated 2001).

Experiments:
[1] = test system: anti-hapten antibody (sera of rabbits immunized with KLH-hapten I conjugate); experiment: Inhibition ELISA with BSA-Competitor 11 coating conjugate (Methods A,B); format: binding, rabbit; details: for I10 (mdl): Table 3, selected analytes, NR/>100 ppm, NR--No Assay Response
Description: A solution of the coating antigen, consisting of 100 ng of a BSA conjugate of Hapten I or Exemplified Competitor 11 above, in 50 μl of PBS (phosphate buffered saline, pH 7.4, 10 mM phosphate, 150 mM NaCl), was dispensed into each well of a 96-well microtiter plate (Dynatech Immulon-2 commercially available from Dynatech, Inc., Chantilly, Va.) and incubated at 28° C. (+/-0.5° C.) for 2 hours. The coating antigen solution was then removed from the wells and the plate was washed three times with PBS. All wash steps utilized a Cambridge Technology, Inc. Platewasher 260, commercially available from Cambridge Technology, Inc. Cambridge, Mass. The remaining active sites in the wells were blocked with a 150 μl solution of 1% BSA in PBS with 0.02% sodium azide for 2 hours at 28° C. After removal of the blocking solution the plate was washed three times with PBS. Serum stored at -20° C. was freshly thawed and diluted 100-250,000 fold with the 1% BSA in PBS/DT blocking buffer (PBS buffer containing 10% by volume dimethylformamide and 0.5% Triton X-100). This solution (50 μl/well) was then dispensed into replicate wells (3-6) on the plate, which was covered and incubated for 1 hour at room temperature (RT). After removal of the incubation solution the plate was washed three times with PBS. The labeled antibody, anti-rabbit IgG (whole molecule)--alkaline phosphatase conjugate, (Sigma No. A-8025 commercially available from Sigma Chemical Company, St. Louis, Mo.), diluted 1/500 with BSA/PBS, was added in a quantity of 50 μl/well and incubated for 1 hour at 28° C. After removal of the second antibody solution the plate was washed three times with PBS. The wells were then washed (one time) with 10 mM diethanolamine (pH 9.4) which contained 0.5 mM magnesium chloride. Substrate solution (50 μl; 10 mg p-nitrophenylphosphate in 10.0 ml of the diethanolamine/magnesium chloride) was added to each well and incubated for 30 minutes at 28° C. Sodium hydroxide (50 μl of a 0.05 N solution) was added to each of the wells to stop the reaction. The final Absorbance in each well was determined at 405 nm using a Cambridge Technologies, Inc. Model 750 Microplate Reader commercially available from Cambridge Technologies, Inc., Cambridge, Mass. The titer of the sera was determined by a Log Sera Dilution versus Absorbance plot and the EC50 value.
Inhibition ELISA followed the basic assay procedure described above with the following addition: The serum sample was diluted to its EC80 value (400-1000 fold) with the 1% BSA in PBS blocking buffer to which had been added 10% dimethylformamide, volume/volume (v/v), and 0.5% Triton® X-100 (PBS-DT). An aqueous analyte solution (e.g., Aroclor® 1248) was prepared by solution of the analyte in dimethylformamide followed by dilution to the required concentration in PBS-DT. The analyte solution was added to the antibody solution to achieve the desired concentration of analyte (typically 1 ppb-100 ppm) and the resulting solution was incubated overnight at room temperature. This solution (50 μl/well) was then dispensed into replicate wells (3-6) on the plate and the assay completed as above. The minimum detection limit (I10 ) and the I50 values were determined using a Log (Analyte Concentration in parts per billion--ppb) versus Absorbance or by converting absorbance to the B/Bo ratio where B=Sample Absorbance and Bo=Absorbance of the Blank Sample. […] This figure illustrates the significant improvement in PCB sensitivity as measured by both minimum detection limit (B/Bo=0.9) and assay range (B/Bo=0.5) on using a competitor versus a hapten as the competition reagent.
This assay format gave a minimum detection limit (I10) of approximately 0.2 ppm and an I50 of approximately 3 ppm.

[2] = relative to 2,3,7,8-TCDD = 1.0; cited from earlier work
[3] = test system: Hapten VII sera (polyclonal antibodies); experiment: Sera direct EIA with Hapten VII sera and competitor enzyme conjugate; format: binding, mice
Description: The competitors A-E and Hapten VII were conjugated to the enzyme, amino modified Horseradish Peroxidase (HRP) (horseradish peroxidase commercially available from Sigma Chemical Co. (No. P-6782), St. Louis, Mo.; amino modified per R. Hsiao and H. Royer, Archives Biochem. Biophys., 198, 379-385 (1979) to give 6-24 free amines), using the carbodiimide mediated carboxyl activation procedure described for Hapten VII in Example 24. Hapten and competitor load were determined by UV/Vis spectroscopy, also as described for Hapten VII.
(§1) The direct EIA (immoblized antibody and competitor enzyme conjugate) was performed as follows. Serum or monoclonal antibody supernatant stored at -20° C. was diluted 1,000-40,000 fold with PBS which contained 0.1% Tween-20. This solution was dispensed (500 ul) into donkey anti-mouse second antibody coated tubes (DAM Tubes commercially available from Millipore Corp., Bedford, Mass.) and incubated at room temperature overnight. The antisera solution was decanted from the tubes and the tubes washed 3 times with distilled water. Non-specific sites in the tubes were blocked with 600 ul of BSA blocking buffer (EIA Blocking Buffer commercially available from Millipore Corp., Bedford, Mass.) and incubated for 2 hours at room temperature or overnight at 4° C. The blocking buffer was decanted and the tubes allowed to dry under ambient room conditions for at least 2 hours. The assay was performed by adding 500 ul of assay diluent (1% methanol (v/v) and 0.005% Tween-20 (w/v) in distilled water) to the required number of tubes followed by 10 ul of a methanol solution of the analyte (PCB congener). After a 5 minute incubation at room temperature, the solution was decanted and the tubes rinsed 3-4 times with tap water. The horseradish peroxidase competitor or Hapten VII conjugates were diluted 1,000-60,000 fold from 2-5 mg/ml stock solutions in PBS with conjugate diluent (Enzyme Conjugate Diluent commercially available from Millipore Corp., Bedford, Mass.). The enzyme conjugate (200 ul) was added to the tubes followed by a 5 minute incubation at room temperature. The conjugate solution was decanted and the tubes rinsed 3-4 times with tap water. Enzyme substrate solution (500 ul, KPL No. 50-76-04 commercially available from KPL Laboratories, Gaithersburg, Md.) was added and the tubes were incubated at room temperature for 5-15 minutes. The enzyme reaction was stopped with the addition of 500 ul of 1N HCl. The OD of the solution was determined at 450 nm. The data was plotted using Log (Congener Concentration) versus B/Bo (B=Sample Absorbance, Bo=Sample Blank Absorbance).
The direct EIA (Method 19) was used to evaluate sera samples taken on day 120.

[4] = test system: Hapten VII sera (polyclonal antibodies); experiment: Sera indirect EIA with Hapten VII sera and Competitor C; format: binding, mice; details: day 120 sera, Competitor C, FIG. 7
Description: The indirect EIA (immobilized competitor BSA conjugate) was performed as described by Karu, et al. (A. E. Karu, et al., J. Agric. Food Chem., 42, 301-309 (1994)).
The indirect EIA (Method 18) was used to evaluate sera samples taken on day 120.

[5] = biological target: Hapten VII derived monoclonal antibody S2B1; experiment: Monoclonal antibody direct EIA with Competitor D enzyme conjugate; format: binding; details: for estimated I50: FIG. 9, 4-parameter logistic fits; for I50: FIG. 9, monoclonal antibody S2B1, text value
Description: as §1
Monoclonal antibodies were derived essentially as described by Karu, et al. (A. E. Karu, et al., J. Agric. Food Chem., 42, 301-309 (1994)) using Hapten VII BSA conjugate and Competitor C BSA conjugate for the primary screen.
FIG. 9 illustrates the specificity of a direct EIA based on the Hapten VII derived monoclonal antibody S2B1 and Competitor D enzyme conjugate. Both 3,3',4,4'-tetrachlorobiphenyl and 3,3',4,4',5-pentachlorobiphenyl give ca. 1 ppb I50 values. Cross-reactions of a number of congeners which are significant Aroclor(R) consitutents are <0.001%.

[6] = Table 7, Hapten VII sera and Competitor D direct EIA
[7] = direct EIA, day 120 sera, Competitor C, FIG. 8
[8] = BSA-Competitor 11 coating conjugate, FIG. 1 Plot 3 (analyte Aroclor 1248)

Clc1ccc(Cl)c(Cl)c1 [1,2,4-trichlorobenzene]
I10 (mdl) [1]: > 100 ppm

Clc1ccccc1Cl [1,2-dichlorobenzene]
I10 (mdl) [1]: > 100 ppm

Clc1cccc(Cl)c1 [1,3-dichlorobenzene]
I10 (mdl) [1]: > 100 ppm

Clc1ccc(Cl)cc1 [1,4-dichlorobenzene]
I10 (mdl) [1]: > 100 ppm

Clc1cc(Cl)c(-c2cc(Cl)c(Cl)cc2Cl)cc1Cl [2,2',4,4',5,5'-hexachlorobiphenyl]
TEF [2]: less than 0.00001
I50 [3, 6]: > 20,000 ppb
cross reaction relative to 3,3',4,4'-tetrachlorobiphenyl [3, 7]: < 0.05%
cross-reaction relative to 3,3',4,4'-tetrachlorobiphenyl [4]: < 0.0%

O=C(O)COc1ccc(Cl)cc1Cl [2,4-dichlorophenoxyacetic acid]
I10 (mdl) [1]: > 100 ppm

Oc1cc(Cl)ccc1Cl [2,5-dichlorophenol]
I10 (mdl) [1]: > 100 ppm

COc1cccc(Cl)c1 [3-chloroanisole]
I10 (mdl) [1]: > 100 ppm

Oc1cccc(Cl)c1 [3-chlorophenol]
I10 (mdl) [1]: > 100 ppm

Clc1ccc(-c2ccc(Cl)c(Cl)c2)cc1Cl [BZ No. 77, 3,3',4,4'-tetrachlorobiphenyl]
TEF [2]: 0.01
estimated I50 [5]: 0.9 ppb
I50 [5]: ca. 1 ppb
I50 [3, 6]: 3 ppb
I50 [3, 7]: 1.4 ppb
I50 [4]: < 10 ppb

Clc1ccc(-c2cc(Cl)c(Cl)c(Cl)c2)cc1Cl [BZ No. 126, 3,3',4,4',5-pentachlorobiphenyl]
TEF [2]: 0.1
estimated I50 [5]: 1.2 ppb
I50 [5]: ca. 1 ppb

O=C(O)CCCCc1cc(Cl)ccc1Cl [Competitor 11, 5-(2,5-Dichlorophenyl)pentanoic acid]
I50 [1, 8]: approximately 3 ppm
minimum detection limit (I10) [1, 8]: approximately 0.2 ppm
I50 ([3]; Table 6, I50 of analyte 3,3',4,4'-tetrachlorobiphenyl with the listed competitor, Hapten VII sera): 6-8 ppb
Assay sensitivity versus Hapten VII enzyme conjugate based assay ([3]; in words, Table 6): significantly more sensitive
